{"source": "patent US6524805B1", "about": "(priority 1997, dated 2003)", "key": {"mu3 opiate receptor [1]": {"biological_target": "T1, mu3 opiate receptor (Homo sapiens, UniProt P35372)", "T1 construct": "aliquots of membrane suspensions from human granulocytes and lung non-small cell carcinoma; from tissue; host or cells: human granulocytes, human monocytes, normal lung, non-small cell lung carcinoma tissue, vascular tissue", "T1 sequence (P35372 1-314 isoform P35372-14)": "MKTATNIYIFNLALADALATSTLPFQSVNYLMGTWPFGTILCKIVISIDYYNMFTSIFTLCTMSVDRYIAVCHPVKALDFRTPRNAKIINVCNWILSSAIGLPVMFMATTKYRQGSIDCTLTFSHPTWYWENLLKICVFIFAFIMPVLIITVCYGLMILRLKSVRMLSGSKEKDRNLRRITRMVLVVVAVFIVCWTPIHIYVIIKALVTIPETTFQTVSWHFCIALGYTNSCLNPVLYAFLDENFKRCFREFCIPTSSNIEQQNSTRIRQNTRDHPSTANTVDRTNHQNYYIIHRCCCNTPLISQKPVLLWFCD", "assay": "biochemical", "format": "binding", "method": "Binding was studied in human granulocytes, normal lung, and non-small cell lung carcinoma tissue. The separate materials were washed and homogenized in 50 volumes of 0.32 M sucrose (pH 7.4) at 4° C. […] Briefly, aliquots of membrane suspensions from human granulocytes and lung non-small cell carcinoma (less 9% lymphocyte infiltrate) were incubated with non-radioactive compounds at six concentrations for 10 minutes at 22° C. and then with 40 nM of ^3H-dihydromorphine ([^3H]-DHM) for 60 minutes at 4° C. One hundred percent binding is defined as bound [^3H]-DHM in the presence of 10 μM dextrophan minus bound [^3H]-DHM in the presence of 10 μM levorphanol. The IC50 values are defined as the concentration of drug that elicits half-maximal inhibition of specific binding. The mean SEM for three experiments is given."}, "mu3 opiate receptor [2]": {"biological_target": "T1, mu3 opiate receptor", "format": "cell-based", "method": "The system was calibrated daily using different concentrations of the nitrosothiol donor S-nitroso-N-acetyl-DL-penicillamine (SNAP; Sigma, St. Louis, Mo.) to generate a standard curve. The concentration of NO gas in solution was measured in real-time with the DUO 18 computer data acquisition system (World Precision Instruments). Each experiment was simultaneously performed with a control (vehicle alone) to exclude experimental drift in NO release unrelated to the administration of compounds."}, "[3]": {"system": "estrogen surface receptor (ESR1)", "assay": "Intracellular calcium (fura-2) in human arterial endothelial cells, estrogen compounds", "format": "cell-based", "settings": "for effect of prior exposure on 17β-estradiol-induced [Ca^2+]i increase: tamoxifen 1 nM, ICI 182, 780 1 μM", "method": "Human arterial endothelial cells were purchased from Cell Systems (Eugene, Oregon) and grown at 37° C., 5% CO2 in chamber slides (Nunc Int.) with CS-C medium (Cell Systems) supplemented with 10% fetal calf serum and endothelial growth factor. Intracellular calcium levels were measured by dual emission microfluorimetry using the fluorescent dye fura-2/AM. Cells were loaded with the fluorescent ion indicator as follows. […] Cells were washed twice with PBS and then test drugs were added. […] Experiments were carried out at room temperature in PBS without calcium/magnesium. Receptor antagonists, when used, were administered 2 minutes prior to the respective agonist.\nIntracellular calcium levels in human arterial endothelial cells were monitored as described herein for the mu3 studies."}, "[4]": {"system": "estrogen surface receptor (ESR1)", "assay": "NO release from ITA fragments and cultured arterial endothelial cells, estrogen compounds", "format": "cell-based, human", "excerpt": "Internal thoracic artery (ITA) segments were obtained from patients undergoing elective coronary artery bypass grafting (CABG) for atherosclerotic coronary artery disease. Patients with chronic illnesses, such as diabetes or cancer as well as acute processes (e.g., known infections, trauma), were excluded.\nPrior to measuring NO release, the cells were exposed to a concentration gradient of the various ligands."}, "mu3 opiate receptor [5]": {"biological_target": "T1, mu3 opiate receptor", "format": "cell-based", "remark": "listed apart in the source"}}, "note": "Where “and” joins values, the source holds several entries; their conditions need not be identical. Equal entries are not always repeated. Where two headings read alike, the source gives them in different places.", "data": [{"smiles": "CN1CC[C@]23c4c5ccc(O)c4O[C@H]2[C@@H](O)CC[C@H]3[C@H]1C5", "note": "[Dihydromorphine]", "values": [{"measurement": "IC50", "setting": "mu3 opiate receptor [1]; Displacement of [3H]-DHM IC50", "result": "0.033 µM and 0.027 µM and 0.0285 µM"}]}, {"smiles": "Oc1ccc2c3c1O[C@H]1c4[nH]c5ccccc5c4C[C@@]4(O)[C@@H](C2)N(CC2CC2)CC[C@]314", "note": "[Naltrindole]", "values": [{"measurement": "NO release", "setting": "mu3 opiate receptor [2]", "result": "12.0 ± 3.4", "unit": "nM"}, {"measurement": "effect on the inhibition of morphine-induced NO release by DAMA", "setting": "mu3 opiate receptor [2]", "result": "blocked"}]}, {"smiles": "CC/C(=C(\\c1ccccc1)c1ccc(OCCN(C)C)cc1)c1ccccc1", "note": "[Tamoxifen]", "values": [{"measurement": "effect of prior exposure on 17β-estradiol-induced [Ca^2+]i increase", "setting": "[3]", "result": "blocked"}, {"measurement": "effect of pre-treatment on 17β-estradiol-induced NO release", "setting": "[4]", "result": "significantly diminished"}, {"measurement": "effect of pre-treatment on E2-BSA-induced NO release", "setting": "[4]", "result": "blocked"}]}, {"smiles": "C[C@]12CC[C@@H]3c4ccc(O)cc4CC[C@H]3[C@@H]1CC[C@H]2O", "note": "[17α-estradiol]", "values": [{"measurement": "stimulation of NO release", "setting": "[4]", "result": "did not stimulate"}]}, {"smiles": "CC(C)C[C@@H](NC(=O)[C@H](Cc1ccccc1)NC(=O)CNC(=O)[C@@H](C)NC(=O)[C@@H](N)Cc1ccc(O)cc1)C(=O)O", "note": "[DADLE, (D-Ala^2, Leu^5)-enkephalin]", "values": [{"measurement": "stimulation of intracellular calcium level increases in endothelial cells", "setting": "mu3 opiate receptor [5]", "result": "did not stimulate"}]}, {"smiles": "C[C@]12CC[C@@H]3c4ccc(O)cc4C[C@@H](CCCCCCCCC[S+]([O-])CCCC(F)(F)C(F)(F)F)[C@H]3[C@@H]1CC[C@@H]2O", "note": "(stereo partly shown) [ICI 182, 780]", "values": [{"measurement": "effect of prior exposure on 17β-estradiol-induced [Ca^2+]i increase", "setting": "[3]", "result": "not"}, {"measurement": "effect of pre-treatment on 17β-estradiol-induced NO release", "setting": "[4]; ITA fragments and cultured arterial endothelial cells, tamoxifen 1 nM, ICI 182,780 1 nM, L-NAME 100 μM, 5 minutes before agonist", "result": "failed to inhibit"}, {"measurement": "effect of pre-treatment on E2-BSA-induced NO release", "setting": "[4]; ITA fragments and cultured arterial endothelial cells, tamoxifen, ICI 182,780 1 nM, L-NAME 100 μM, 5 minutes before agonist", "result": "failed to inhibit"}]}, {"smiles": "C[C@@H](NC(=O)[C@@H](N)Cc1ccc(O)cc1)C(=O)NCC(=O)N(C)[C@@H](Cc1ccccc1)C(=O)NCCO", "note": "[DAMGO, (Tyr-D-Ala^2, Gly-N-Me-Phe^4, Gly(ol)^5)-enkephalin]", "values": [{"measurement": "effect of pre-treatment on morphine-induced NO release", "setting": "mu3 opiate receptor [2]", "result": "prevented"}, {"measurement": "effect on NO release (compound alone)", "setting": "mu3 opiate receptor [2]", "result": "no effect"}, {"measurement": "inhibition of morphine-induced NO release", "setting": "mu3 opiate receptor [2]", "result": "significantly (P<0.05) inhibited"}, {"measurement": "stimulation of endothelial [Ca^2+]i increases", "setting": "mu3 opiate receptor [5]", "result": "did not stimulate"}]}, {"smiles": "C[C@]12CC[C@@H]3c4ccc(O)cc4CC[C@H]3[C@@H]1CC[C@@H]2O", "note": "[17β-estradiol]", "values": [{"measurement": "[Ca^2+]i after leaching of intracellular calcium stores", "setting": "[3]; 17β-estradiol 1 nM, 3 hour Ca-free incubation, medium changed six times", "result": "3.8±0.6"}, {"measurement": "EC50", "setting": "[3]; stated with the [Ca^2+]i results", "result": 0.0005, "unit": "µM"}, {"measurement": "NO release at 10 pM", "setting": "[4]", "result": "failed to stimulate a significant increase"}, {"measurement": "NO release in Ca-leached endothelial cells", "setting": "[4]", "result": "1.8 ± 0.6", "unit": "nM"}, {"measurement": "NO release peak value", "setting": "[4]", "result": 16.1, "unit": "nM"}, {"measurement": "concentration of maximal effect on NO release", "setting": "[4]", "result": 1, "unit": "nM"}, {"measurement": "peak value of NO release (non-leached comparison)", "setting": "[4]", "result": "16.0 ± 2.7", "unit": "nM"}, {"measurement": "response of ITA with endothelial lining scraped off", "setting": "[4]", "result": "non-responsive"}, {"measurement": "time period of NO release", "setting": "[4]", "result": 10, "unit": "min"}, {"measurement": "time to peak of NO release", "setting": "[4]", "result": "≤ 2", "unit": "min"}]}, {"smiles": "COC(=O)[C@@H](N)CCCNC(=N)N[N+](=O)[O-]", "note": "[L-NAME, N omega-nitro-L-arginine methyl ester]", "values": [{"measurement": "effect of pretreatment on morphine-induced NO release", "setting": "mu3 opiate receptor [2]; human granulocytes", "result": "inhibited"}]}, {"smiles": "CSCC[C@H](NC(=O)[C@H](Cc1ccccc1)NC(=O)CNC(=O)[C@@H](C)NC(=O)[C@@H](N)Cc1ccc(O)cc1)C(N)=O", "note": "[DAMA, (D-Ala^2, Met^5)-enkephalinamide]", "values": [{"measurement": "NO release at 4 minutes post morphine exposure", "setting": "mu3 opiate receptor [2]", "result": "5.2 ± 1.4", "unit": "nM"}, {"measurement": "effect of pre-treatment on morphine-induced NO release", "setting": "mu3 opiate receptor [2]; 1 nM peptide, vascular tissue, human monocytes, human granulocytes", "result": "prevented"}, {"measurement": "inhibition of morphine-induced NO release", "setting": "mu3 opiate receptor [2]; 1 nM peptide, vascular tissue, 4 to 10 minute time points", "result": "significantly (P<0.05) inhibited"}, {"measurement": "NO release at 4 minutes", "setting": "mu3 opiate receptor [2]; vascular tissue, DAMA alone 1 nM", "result": 0.0, "unit": "nM"}, {"measurement": "stimulation of intracellular calcium level increases in endothelial cells", "setting": "mu3 opiate receptor [5]; concentration range 1 pM to 1 μM", "result": "did not stimulate"}, {"measurement": "IC50", "setting": "mu3 opiate receptor [1]; GRANULOCYTES membranes, 40 nM [3H]-DHM, mean ± SEM, three experiments, read-out: Displacement of [3H]-DHM IC50", "result": "> 1", "unit": "µM"}, {"measurement": "IC50", "setting": "mu3 opiate receptor [1]; LUNG CARCINOMA (non-small cell) membranes, 40 nM [3H]-DHM, mean ± SEM, read-out: Displacement of [3H]-DHM IC50", "result": "> 1", "unit": "µM"}, {"measurement": "IC50", "setting": "mu3 opiate receptor [1]; NORMAL LUNG membranes, 40 nM [3H]-DHM, mean ± SEM, read-out: Displacement of [3H]-DHM IC50", "result": "> 1", "unit": "µM"}]}]}
